Measurements reported in US10112918B2, “15-oxospiramilactone derivatives, preparation method and uses thereof” (Kunming Institute of Botany, The Chinese Academy of Sciences, priority 2013, dated 2018).
Where two headings read alike, the source gives them in different places.

Key:
Type in all cases: cell-based
[1] = test system: A-549 (Human lung adenocarcinoma cells); test: MTT inhibition of tumor cell growth, A-549; conditions: Homo sapiens
Outline: (§1)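 Seed 5000-10000 cells/well (adherent lines 12 h ahead); add compound at 40 μM or, for hits near 50% inhibition, 5 concentrations; incubate 48 h at 37° C; add MTT 4 h, dissolve in 10% SDS overnight; read 595 nm; derive IC50 by Reed-Muench.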

[2] = test system: MCF-7 (human breast cancer cells); test: MTT inhibition of tumor cell growth, MCF-7; conditions: Homo sapiens
Outline: as §1

[3] = test system: Wnt signaling pathway (Top-Flash reporter gene); test: Top-Flash Wnt reporter gene assay in HEK293T cells with Wnt3a conditioned medium; conditions: Homo sapiens, HEK-293T, 6 h, 6 h
Outline: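 HEK293T transfected with TOP-flash (5 ng/well) plus GFP plasmid for normalization, then treated 6 h with mouse Wnt3a conditioned medium from L cells, with or without compound. GFP-normalized luciferase minus DMSO-only background, scaled to Wnt-induced activity; IC50 at 0.5 relative residual activity from 4-parameter logistic fit.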

[4] = test system: HL-60 (human promyelocytic leukemia cells); test: MTT inhibition of tumor cell growth, HL-60; conditions: Homo sapiens
Outline: as §1

[5] = test system: SW-480 (human colon cancer cells); test: MTT inhibition of tumor cell growth, SW-480; conditions: Homo sapiens
Outline: as §1

[6] = test system: SMMC-7721 (human hepatoma cells); test: MTT inhibition of tumor cell growth, SMMC-7721; conditions: Homo sapiens
Outline: as §1

[7] = A549, 48 h, Table 2, derivatives having potential Michael reaction acceptor
[8] = MCF7, 48 h, Table 2, derivatives having potential Michael reaction acceptor
[9] = Table 9, HEK293T, Wnt3a conditioned medium, read-out: IC50(μM), inhibitory activity on the Wnt signaling pathway
[10] = HL-60, 48 h, Table 2, derivatives having potential Michael reaction acceptor
[11] = SW480, 48 h, Table 2, derivatives having potential Michael reaction acceptor, read-out: IC50 SW-480
[12] = SMMC-7721, 48 h, Table 2, derivatives having potential Michael reaction acceptor
[13] = A549, 48 h, Table 5, derivatives having double Michael reaction acceptor
[14] = MCF7, 48 h, Table 5, derivatives having double Michael reaction acceptor
[15] = HL-60, 48 h, Table 5, derivatives having double Michael reaction acceptor
[16] = SW480, 48 h, Table 5, derivatives having double Michael reaction acceptor, read-out: IC50 SW-480
[17] = SW480, 48 h, Table 6, double Michael reaction acceptor derivatives, read-out: IC50 SW-480, derivatives having double Michael reaction acceptor
[18] = SMMC-7721, 48 h, Table 5, derivatives having double Michael reaction acceptor
[19] = A549, 48 h, Table 4, derivatives obtained by reduction of the lactonic ring
[20] = MCF7, 48 h, Table 4, derivatives obtained by reduction of the lactonic ring
[21] = Table 10, HEK293T, Wnt3a conditioned medium, read-out: IC50 (μM), inhibitory activity on the Wnt signaling pathway
[22] = HL-60, 48 h, Table 4, derivatives obtained by reduction of the lactonic ring
[23] = SW480, 48 h, Table 4, derivatives obtained by reduction of the lactonic ring, read-out: IC50 SW-480
[24] = SMMC-7721, 48 h, Table 4, derivatives obtained by reduction of the lactonic ring
[25] = Table 8, HEK293T, Wnt3a conditioned medium, read-out: IC50 (μM), inhibitory activity on the Wnt signaling pathway
[26] = SW480, 48 h, Table 6, 7-carbonyl derivatives, read-out: IC50 SW-480, 7-carbonyl derivatives
[27] = A549, Table 7 (first), alkaloid derivatives, 48 h
[28] = MCF7, Table 7 (first), alkaloid derivatives, 48 h
[29] = read-out: IC50 (μM), inhibitory activity on the Wnt signaling pathway
[30] = HL-60, Table 7 (first), alkaloid derivatives, 48 h
[31] = SW480, Table 7 (first), alkaloid derivatives, 48 h, read-out: IC50 SW-480
[32] = SMMC-7721, Table 7 (first), alkaloid derivatives, 48 h

IC50 [3, 9] [µM] | IC50 [1, 19] [nM] | IC50 [2, 20] [nM] | IC50 [4, 22] [µM] | IC50 [5, 23] [nM] | IC50 [6, 24] [nM] | Compound | IC50 [1, 27] [nM] | IC50 [2, 28] [nM] | IC50 [3, 29] [µM] | IC50 [4, 30] [µM] | IC50 [5, 31] [nM] | IC50 [6, 32] [nM] | also measured
> 60 |  |  |  |  |  | C=C1C(=O)C23CC[C@H]1CC2[C@]1(COC(C)=O)CCC[C@@](C)(COC(C)=O)C1[C@H](COC(C)=O)C3=O (some centres unmarked) [Compound 52] |  |  |  |  |  |  | IC50 [1, 7]: 11100 nM; IC50 [2, 8]: 15100 nM; IC50 [4, 10]: 6.33 µM; IC50 [5, 11]: 12900 nM; IC50 [6, 12]: 15400 nM
7.3 |  |  |  |  |  | C=C1C(=O)C23CC[C@@H](CC2[C@]2(COC(C)=O)CCC[C@@](C)(COC(C)=O)C12)C(=C)C3=O (some centres unmarked) [Compound 53] |  |  |  |  |  |  | IC50 [1, 13]: 640 nM; IC50 [2, 14]: 650 nM; IC50 [4, 15]: 1.21 µM; IC50 [5, 16]: 780 nM; IC50 [5, 17]: 780 nM; IC50 [6, 18]: 750 nM
 | 1170 | 650 | 0.62 | 800 | 1060 | C=C1C(=O)C23CC[C@H]1CC2[C@]1(COCC#N)CCC[C@@](C)(COC(=O)c2cccs2)C1CC3=O (some centres unmarked) [Compound 55] |  |  |  |  |  |  | IC50 [3, 21]: 12.1 ± 1.25 µM
 | 4210 | 3310 | 4.18 | 2940 | 3950 | C=C1C(=O)[C@]23CC[C@H]1CC2[C@]1(COC(=O)N2CCOCC2)CCC[C@@](C)(COS(C)(=O)=O)C1CC3=O (some centres unmarked) [Compound 59] |  |  |  |  |  |  | IC50 [3, 21]: 43.8 ± 3.05 µM
 | 2320 | 2050 | 2.7 | 3370 | 2180 | C=C1C(=O)C23CC[C@H]1CC2[C@]1(COS(C)(=O)=O)CCC[C@@](C)(COC(=O)N2CCOCC2)C1CC3=O (some centres unmarked) [Compound 61] |  |  |  |  |  |  | IC50 [3, 21]: 32.3 ± 3.01 µM
 | 700 | 670 | 0.61 | 590 | 570 | C=C1C(=O)C23CC[C@H]1CC2[C@]1(COC(=O)c2cccs2)CCC[C@@](C)(COC(=O)c2cccs2)C1CC3=O (some centres unmarked) [Compound 64] |  |  |  |  |  |  | IC50 [3, 25]: 7.83 ± 0.7 µM; IC50 [5, 26]: 710 nM
7.68 ± 0.19 |  |  |  |  |  | C=C1C(=O)C23CC[C@@H](CC2[C@]2(COC(=O)c4cccs4)CCC[C@@](C)(COC(=O)c4cccs4)C12)C(=C)C3=O (some centres unmarked) [Compound 65] |  |  |  |  |  |  | IC50 [1, 13]: 350 nM; IC50 [2, 14]: 330 nM; IC50 [4, 15]: 0.29 µM; IC50 [5, 16]: 160 nM; IC50 [5, 17]: 260 nM; IC50 [6, 18]: 220 nM
 | 800 | 890 | 0.71 | 760 | 570 | C=C1C(=O)C23CC[C@H]1CC2[C@]1(COC(C)=O)CCC[C@@](C)(COC(=O)c2cccs2)C1CC3=O (some centres unmarked) [Compound 66] |  |  |  |  |  |  | IC50 [3, 25]: 8.39 ± 0.63 µM; IC50 [5, 26]: 700 nM
4.92 ± 0.69 |  |  |  |  |  | C=C1C(=O)C23CC[C@@H](CC2[C@]2(COC(C)=O)CCC[C@@](C)(COC(=O)c4cccs4)C12)C(=C)C3=O (some centres unmarked) [Compound 67] |  |  |  |  |  |  | IC50 [1, 13]: 140 nM; IC50 [2, 14]: 150 nM; IC50 [4, 15]: 0.24 µM; IC50 [5, 16]: 100 nM; IC50 [5, 17]: 130 nM; IC50 [6, 18]: 130 nM
 | 1860 | 1550 | 1.37 | 1850 | 930 | C=C1C(=O)C23CC[C@H]1CC2[C@]1(COS(C)(=O)=O)CCC[C@@](C)(COS(C)(=O)=O)C1C[C@H]3O (some centres unmarked) [Compound 72a] |  |  |  |  |  |  | IC50 [3, 25]: 12.6 ± 1.04 µM; IC50 ([5]; SW480, 48 h, Table 6, 7-hydroxyl derivatives and controls, read-out: IC50 SW-480, 7-hydroxyl derivatives): 2230 nM
 | 2890 | 2360 | 3.97 | 2570 | 770 | C=C1C(=O)C23CC[C@H]1CC2[C@]1(COS(C)(=O)=O)CCC[C@@](C)(COS(C)(=O)=O)C1CC3=O (some centres unmarked) [Compound 73a] |  |  |  |  |  |  | IC50 [3, 25]: 43 ± 5.35 µM; IC50 [5, 26]: 2570 nM
11.2 ± 1.54 |  |  |  |  |  | C=C1C(=O)C23CC[C@@H](CC2[C@]2(COS(C)(=O)=O)CCC[C@@](C)(COS(C)(=O)=O)C12)C(=C)C3=O (some centres unmarked) [Compound 74a] |  |  |  |  |  |  | IC50 [1, 13]: 560 nM; IC50 [2, 14]: 530 nM; IC50 [4, 15]: 0.51 µM; IC50 [5, 16]: 150 nM; IC50 [5, 17]: 650 nM; IC50 [6, 18]: 260 nM
> 60 |  |  |  |  |  | C[C@]12CCC[C@@]3(C(=O)OC1)C1C[C@@H]4CCC1(C(=O)[C@H]4CN1CCOCC1)[C@H](O)CC23 (some centres unmarked) [Compound 75] |  |  |  |  |  |  | IC50 [1, 7]: 3640 nM; IC50 [2, 8]: 4120 nM; IC50 [4, 10]: 3.78 µM; IC50 [5, 11]: 8010 nM; IC50 [6, 12]: 5970 nM
> 60 |  |  |  |  |  | C[C@]12CCC[C@@]3(C(=O)OC1)C1C[C@@H]4CCC1(C(=O)[C@@H]4CN1CCOCC1)[C@H](O)CC23 (some centres unmarked) [Compound 76] |  |  |  |  |  |  | IC50 [1, 7]: 4040 nM; IC50 [2, 8]: 5960 nM; IC50 [4, 10]: 5.28 µM; IC50 [5, 11]: 7690 nM; IC50 [6, 12]: 13100 nM
 |  |  |  |  |  | C=C1C(=O)[C@]23CC[C@H]1CC2[C@@]12CCC[C@@]4(C)C5OCCN5C1O[C@@H]3CC42 (some centres unmarked) [Compound 77] | 2030 | 670 | > 60 | 1.34 | 1970 | 1040 | 
 |  |  |  |  |  | C=C1C(=O)[C@]23CC[C@H]1CC2[C@@]12CCC[C@@](C)(C(=O)N4CCO[C@H]41)C2C[C@H]3O (some centres unmarked) [Compound 78] |  |  |  |  |  |  | IC50 ([1]; A549, 48 h, Table 7 (first), alkaloid derivatives): 3090 nM; IC50 ([2]; MCF7, 48 h, Table 7 (first), alkaloid derivatives): 1120 nM; IC50 ([3]; Table 11, HEK293T, Wnt3a conditioned medium, read-out: IC50 (μM), inhibitory activity on the Wnt signaling pathway): 28.7 ± 0.97 µM; IC50 ([4]; HL-60, 48 h, Table 7 (first), alkaloid derivatives): 2.73 µM; IC50 ([5]; SW480, 48 h, Table 7 (first), alkaloid derivatives, read-out: IC50 SW-480): 2810 nM; IC50 ([6]; SMMC-7721, 48 h, Table 7 (first), alkaloid derivatives): 2630 nM
 |  |  |  |  |  | C=C1C(=O)[C@]23CC[C@H]1CC2[C@@]12CCC[C@@]4(C)C(=O)N(CCO)[C@@H]1O[C@@H]3CC24 (some centres unmarked) [Compound 83] | 17900 | 13200 | > 60 | 18.6 | 12400 | 18400 | 
 |  |  |  |  |  | C=C1C(=O)[C@]23CC[C@H]1CC2[C@@]12CCC[C@@]4(C)C(=O)N[C@@H]1O[C@@H]3CC24 (some centres unmarked) [Compound 84] | 19000 | 15700 | 60.6 ± 3.09 | 18.6 | 14200 | 15700 | 
 |  |  |  |  |  | C=C1C(=O)[C@]23CC[C@H]1CC2[C@@]12CCC[C@@](C)(CN(CCO)C1)C2C[C@H]3O (some centres unmarked) [Compound 88] | 9920 | 16600 | > 60 | 7.95 | 14400 | 11200 | 
 |  |  |  |  |  | C=C1C(=O)[C@@]23CC[C@@H](CC2[C@@]24CCC[C@@](C)(CN(CCO)C2)C14)C(=C)[C@@H]3O (some centres unmarked) [Compound 89] | 3040 | 6980 | 8.34 ± 0.9 | 4.82 | 9840 | 1480 | 
 |  |  |  |  |  | C=C1C(=O)[C@]23CC[C@H]1CC2[C@@]12CCC[C@@](C)(CN(CCO)C1)C2CC3=O (some centres unmarked) [Compound 91] | 9240 | 15700 | 49.4 ± 1.42 | 14.3 | 11800 | 15200 | 
 |  |  |  |  |  | C=C1C(=O)[C@@]23CC[C@@H](CC2[C@@]24CCC[C@@](C)(CN(CCO)C2)C14)C(=C)C3=O (some centres unmarked) [Compound 93] | 6500 | 3570 | 17 ± 1.28 | 6.61 | 2810 | 11500 | 
